Assay results published in patent US20240300934A1, “COMPOUNDS FOR MODULATING MYCOBACTERIUM TUBERCULOSIS RESPONSE” (priority 2021, published 2024).

Tested on: murine bone marrow derived macrophages phagosome
Test: Phagosomal maturation assays with sensor beads
Format: cell-based, mouse
Details: 10 μM
Protocol: Carboxyfluorescein (pH readout), DQ-BSA/Alexa Fluor 594 (AF594) (proteolysis readout), and 10,10′-Bis[3-carboxylpropyl]-9,9′-biacridinium (BAC)/AF594 (Cl^− readout) beads were generated as previously described (Podinovskaia et al, 2013; Tan et al, 2013; Tan et al, 2017; Yates et al, 2008). Bone marrow-derived macrophages were isolated from C57BL/6J mice (Jackson Laboratories) and maintained as described above. 2×10^5 macrophages/well were seeded into 96-well clear bottom black plates, and utilized in assays one-two days post-seeding. […] Assay buffer consisted of PBS, pH 7.2, supplemented with 5% FBS, 5 mM dextrose, 1 mM CaCl2, 2.7 mM KCl, and 0.5 mM MgCl2 in the case of assays with the carboxyfluorescein or DQ-BSA/AF594 beads (Buter et al, 2019; Dutta et al, 2020). For assays with the BAC/AF594 beads, assay buffer consisted of PBS, pH 7.2, supplemented with 5% FBS, 5 mM dextrose, 1 mM calcium acetate, 1.35 mM K2SO4, and 0.5 mM MgSO4 (Tan et al, 2013). Sensor beads at ˜2-5 beads/macrophage in appropriate assay buffer were finally added, with data acquisition on a Biotek Synergy H1 microplate reader with bottom read signal detection started within 2-3 minutes of bead addition. Excitation/emission wavelengths were 450 nm/520 nm and 490 nm/520 nm for carboxyfluorescein, 490 nm/520 nm for DQ-BSA, 365 nm/505 nm for BAC, and 590 nm/617 nm for AF594. Each experiment was run with a total of 3-5 replicate wells/condition, with temperature maintained at 37° C. throughout the assay. Wells were read every 2 minutes for 2 hours for the carboxyfluorescein bead assays, every 2 minutes for 4 hours for the DQ-BSA/AF594 bead assays, and every 1 minute for 2 hours for the BAC/AF594 bead assays. Analyses of the results were performed as previously described (Buter et al, 2019; Dutta et al, 2020; Podinovskaia et al, 2013; Tan et al, 2013).

Compound: CCSc1ncc(CN2CCN(c3nc4ccccc4o3)CC2)cn1 [Compound C6, 2-(4-((2-(ethylthio)pyrimidin-5-yl)methyl)piperazin-1-yl)benzo[d]oxazole]
- increase in [Cl−] during macrophage phagosomal maturation (BAC/AF594 beads): no significant effect
- macrophage phagosomal proteolytic activity (DQ-BSA/AF594 beads): did not affect macrophage phagosomal proteolytic activity
- macrophage phagosomal acidification (carboxyfluorescein beads): did not alter macrophage phagosomal acidification
